The values that follow come from article PMC9298186, “Thiamine analogues as inhibitors of pyruvate dehydrogenase and discovery of a thiamine analogue with non-thiamine related antiplasmodial activity” (RSC Medicinal Chemistry, 2022).

Usually inhibition stands for how much of the control response was suppressed. For orientation: Ki means the equilibrium dissociation constant of an inhibitor or competing ligand from its target. Usually melting point stands for the temperature, or range, at which the solid turns liquid. What is called Kd is the constant that tells how readily two partners part at equilibrium.

Read-outs that look alike come from different tables or passages of the source. A value given as a limit tells only on which side of the number the result lay.

Series [1] relates to Zymomonas mobilis pyruvate decarboxylase (zmPDC). Further details: method as in PMID 19082157. To be noted: cited from earlier work.
Series [2] deals with T1, porcine PDHc E1 (Sus scrofa, UniProt F1SGH5+P29804).
T1 sequence (P29804 31-390): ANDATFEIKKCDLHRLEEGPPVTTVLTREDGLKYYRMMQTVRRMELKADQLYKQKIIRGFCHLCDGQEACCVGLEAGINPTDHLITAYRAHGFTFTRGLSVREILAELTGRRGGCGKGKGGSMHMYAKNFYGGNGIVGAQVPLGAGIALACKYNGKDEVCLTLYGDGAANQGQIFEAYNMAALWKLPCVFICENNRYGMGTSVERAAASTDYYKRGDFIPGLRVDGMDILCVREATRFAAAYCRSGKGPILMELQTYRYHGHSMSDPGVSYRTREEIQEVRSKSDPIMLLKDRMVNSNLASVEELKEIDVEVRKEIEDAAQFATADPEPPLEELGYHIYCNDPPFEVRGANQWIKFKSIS
T1 sequence (F1SGH5 32-360): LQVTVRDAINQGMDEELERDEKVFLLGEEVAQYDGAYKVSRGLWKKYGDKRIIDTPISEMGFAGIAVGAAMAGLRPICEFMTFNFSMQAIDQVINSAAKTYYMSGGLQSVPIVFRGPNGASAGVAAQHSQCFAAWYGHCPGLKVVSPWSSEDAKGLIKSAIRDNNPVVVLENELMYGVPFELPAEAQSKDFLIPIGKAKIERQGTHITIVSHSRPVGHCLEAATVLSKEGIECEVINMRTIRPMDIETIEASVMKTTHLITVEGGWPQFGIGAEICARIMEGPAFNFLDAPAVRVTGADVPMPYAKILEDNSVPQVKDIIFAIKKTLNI
In words: Porcine PDHc-E1 inhibition, DCPIP reduction assay. The conditions noted are these: for inhibition at 50 µM: read-out: Inhibition (%) of PDH E1; for inhibition at 100 µM: read-out: Inhibition (%) of PDH E1 at [TPP] = 100 μM. The class given is biochemical.

Series [3] concerns P. falciparum 3D7 parasites expressing PfTPK-GFP. In words: Antiplasmodial activity against parasites overexpressing PfTPK-GFP. The conditions noted are these: versus mock and wild-type parasites; presence or absence of thiamine (2.97 μM). It is filed as cell-based, Plasmodium falciparum.
Series [4] has as its system human foreskin fibroblast (HFF) cells. It is filed as cell-based. The conditions noted are these: for Cytotoxicity: human, 96 h; for Selectivity index: HFF cytotoxicity versus antiplasmodial IC50. As for the experimental part:
Cytotoxicity evaluation of selected compounds
Cytotoxicity testing of selected compounds was conducted using HFF cells (human foreskin fibroblasts) as described by Howieson et al. with some modifications.10 Briefly, the HFF cells were seeded in 96- […]
Cycloheximide (10 µM; a protein synthesis inhibitor) was used as a control to indicate complete inhibition of HFF cell proliferation. Plates were […]
A sample of the supernatant
(150 µL) was then carefully aspirated from each well and discarded. The plates were then stored at - 80 °C. SYBR-Safe assay was used to measure cell proliferation. Briefly, the plates were thawed, SYBR-Safe lysis solution (150 µL) was added to each well and mixed via pipetting to ensure the HFF cells were detached from the plate and lysed. The plates were then processed as described for the […]
Fig. S7. […] Data are averaged […]
from three independent experiments, each carried out in triplicate. Error bars represent SEM and, where not visible, are smaller than the symbols. […]
10Howieson, V.M.; Tran, E.; Hoegl, A.; Fam, H.L.; Fu, J.; Sivonen, K.; Li, X.X.; Auclair, K.; Saliba, K.J. Triazole substitution of a labile amide bond […]

In series [5] the test system is P. falciparum 3D7 (chloroquine-sensitive) strain. The experiment in a line: In vitro antiplasmodial activity assay (SYBR-Safe; malstat for 15). The class given is cell-based, Plasmodium falciparum. To be noted: for IC50: Plasmodium falciparum; for Effect of changing folic acid concentration on parasite sensitivity: […] versus 220 μM folic acid in medium.
The target in series [6] is T1, porcine PDHc E1. In words: Porcine PDHc-E1 inhibition, DCPIP reduction assay. It is filed as biochemical. The conditions noted are these: for IC50: [TPP] = 10 μM, mean ± SEM, read-out: IC50 PDH E1; for Ki: read-out: Ki PDH E1.
For series [7], the system named is P. falciparum. Also on record: method as in earlier work. To be noted: ChEMBL; read-out: IC50 against P. falciparum; cited from earlier work.
In series [8] the target is pig heart pyruvate dehydrogenase. Also on record: method as in PMID 183746. To be noted: read-out: KD for TPP in pig heart pyruvate dehydrogenase; cited from earlier work.
Where [9] appears, read: 3D7, read-out: Antiplasmodial IC50, 2.97 μM thiamine.
Setting [10] is: 3D7, read-out: Antiplasmodial IC50, 297 μM thiamine.
Setting [11] is: 3D7, read-out: Antiplasmodial IC50, thiamine free.
Setting [12] is: 3D7, medium with 2.97 μM thiamine, ± SEM, read-out: Antiplasmodial IC50, 2.97 μM thiamine.
The mark [13] stands for this setting: 3D7, medium with 297 μM thiamine, ± SEM, read-out: Antiplasmodial IC50, 297 μM thiamine.
The mark [14] stands for this setting: 3D7, thiamine-free medium, ± SEM, three independent experiments, read-out: Antiplasmodial IC50, thiamine free.

Consider `Cc1ncc(Cn2cc(CCO)nn2)c(N)n1` [Compound 6, reference compound], for which, in series [1], the “Binding to zmPDC, times weaker than TPP” value is “about 1000 times”. In series [2], the inhibition at 50 µM was determined as 60 ± 7% and the inhibition at 100 µM amounted to 35 ± 6%.
In the case of `Cc1ncc(Cn2cc(CCOP(=O)(O)OP(=O)(O)O)nn2)c(N)n1` [Compound 7], the “Binding to zmPDC, times tighter than TPP” value in series [1] is on record as “about 10 000 times”.
Consider `Cc1ncc(Cn2cc(CCOC(=O)c3ccccc3)nn2)c(N)n1` [Compound 12a], for which, in series [3], the “Effect of PfTPK overexpression on parasite sensitivity” value (shortened to “Effect of PfTPK overexpression”) is on record as “no effect”. Moreover, the inhibition at 50 µM in [2] was found to be 72 ± 3%. Further, the inhibition at 100 µM in [2] was determined as 44 ± 4%. Besides, in [4], the Cytotoxicity was greater than 200 µM. The IC50 in series [5] (setting [9]) was 136 ± 18 µM; in [5] (setting [10]), greater than 200 µM; in series [5] (setting [11]), 128 ± 13 µM; in [6], 20 ± 3 µM. Besides, in series [6], the inhibition constant Ki is 0.1 ± 0.015 µM.
In the case of `Cc1ncc(Cn2cc(CCOC(=O)c3ccc(Cl)cc3)nn2)c(N)n1` [Compound 12b], the inhibition at 50 µM in [2] amounted to 81 ± 2%. Also, in series [2], the inhibition at 100 µM amounted to 56 ± 3%. The IC50 in [5] (setting [9]) stood at 125 ± 22 µM; in series [5] (setting [10]) it was 122 ± 6 µM; in series [5] (setting [11]), 107 ± 16 µM.
With `Cc1ncc(Cn2cc(CCOC(=O)c3cccc(Cl)c3)nn2)c(N)n1` [Compound 12c], in series [3], the “Effect of PfTPK overexpression” value is reported as “no effect”. Further, in series [2], the inhibition at 50 µM was determined as 72 ± 3% and the inhibition at 100 µM was 48 ± 3%. Moreover, in [4], the Selectivity index is on record as greater than 3.2 and the Cytotoxicity is greater than 200 µM. Further, the IC50 in [5] (setting [12]) stood at 62 ± 17 µM. In addition, in series [5] (setting [13]), the IC50 is 79 ± 5 µM. Also, the IC50 in [5] (setting [14]) was 63 ± 15 µM.
As for `Cc1ncc(Cn2cc(CCOC(=O)c3ccccc3Cl)nn2)c(N)n1` [Compound 12d], the melting point was 184 to 185 °C. Moreover, in series [2], the inhibition at 50 µM was determined as 61 ± 3% and the inhibition at 100 µM stood at 38 ± 3%. In addition, in series [5] (setting [12]), the IC50 was determined as 347 ± 20 µM. Further, in [5] (setting [13]), the IC50 turned out to be 343 ± 33 µM. For the same compound, the IC50 in series [5] (setting [14]) was 339 ± 31 µM.
As for `Cc1ncc(Cn2cc(CCOC(=O)c3ccc(Br)cc3)nn2)c(N)n1` [Compound 12e], in [2], the inhibition at 50 µM stood at 73 ± 2%. Also, the inhibition at 100 µM in series [2] turned out to be 46 ± 5%. Further, the IC50 was found to be 85 ± 4 µM in series [5] (setting [12]), 82 ± 8 µM in series [5] (setting [13]) and 75 ± 6 µM in [5] (setting [14]).
As for `Cc1ncc(Cn2cc(CCOC(=O)c3ccc([N+](=O)[O-])cc3)nn2)c(N)n1` [Compound 12f], in series [2], the inhibition at 50 µM was 55 ± 5%. Further, the inhibition at 100 µM in series [2] came out at 40 ± 8%. For the same compound, the IC50 in series [5] (setting [12]), in [5] (setting [13]) and in series [5] (setting [14]) was greater than 25 µM throughout.
Consider `Cc1ncc(Cn2cc(CCOC(=O)c3cccc([N+](=O)[O-])c3)nn2)c(N)n1` [Compound 12g], for which the melting point fell in the range of 188 to 189 °C. Besides, in series [2], the inhibition at 50 µM stood at 56 ± 5% and the inhibition at 100 µM worked out at 38 ± 5%. Moreover, in series [5] (setting [9]), the IC50 is 139 ± 9 µM. Further, the IC50 in series [5] (setting [10]) was 143 ± 10 µM. Besides, the IC50 in series [5] (setting [11]) is 135 ± 15 µM. Also, in [6], the IC50 came out at 36 ± 4 µM and the inhibition constant Ki turned out to be 0.182 ± 0.02 µM.
Regarding `Cc1ncc(Cn2cc(CCOc3ccc([N+](=O)[O-])cc3)nn2)c(N)n1` [Compound 13a], in [2], the inhibition at 50 µM turned out to be 75 ± 3%. In series [2], the inhibition at 100 µM was found to be 53 ± 4%. The IC50 is greater than 200 µM in [5] (setting [12]), greater than 200 µM in [5] (setting [13]) and 168 ± 26 µM in series [5] (setting [14]).
With `Cc1ncc(Cn2cc(CCO)nn2)c(NCc2ccc(Br)cc2)n1` [Compound 15], the “Effect of PfTPK overexpression” value in [3] is on record as “no effect”. For the same compound, the inhibition at 50 µM in series [2] was 0%. In addition, the Selectivity index in series [4] is recorded as 45. Also, the Cytotoxicity in series [4] worked out at 98 ± 7 µM. In addition, the IC50 was roughly 2 µM in [5] (3D7, read-out: Antiplasmodial IC50 (text, thiamine concentration not specified)); 2.3 ± 0.1 µM in [5] (setting [12]); 2.7 ± 0.01 µM in series [5] (setting [13]); 2.2 ± 0.2 µM in [5] (setting [14]). Moreover, the “Effect of changing folic acid concentration on parasite sensitivity” value in series [5] is “no difference”. In [6], the “Inhibitory activity against porcine PDHc E1” value is “none”.
Regarding `C=CCc1cnc(C)nc1NCc1ccccc1` [Compound 16], the IC50 in series [7] was 18.5 µM.
For the compound `Cc1ncc(C[n+]2csc(CCO[P@](=O)(O)OP(=O)(O)O)c2C)c(N)n1` [TPP, thiamine pyrophosphate], the Kd in [1] (read-out: KD of TPP, zmPDC) was roughly 0.35 µM; in series [8], 0.05 ± 0.01 µM.
For `Cc1ncc(C[n+]2csc(CCO)c2C)c(O)n1` [oxythiamine, reference compound], in series [3], the “Effect of PfTPK overexpression” value is given as “increased the sensitivity”.
In the case of `COc1ncnc(NS(=O)(=O)c2ccc(N)cc2)c1OC` [sulfadoxine, reference compound], the “Effect of changing folic acid concentration on parasite sensitivity” value in [5] is reported as “diminished”.
